Here are results for two molecules from patent US20210138012A1, “COMPOSITION FOR PREVENTING, AMELIORATING, OR TREATING RESPIRATORY DISEASE COMPRISING SIRAITIA GROSVENORII EXTRACT AS EFFECTIVE COMPONENT” (KOREA INSTITUTE OF ORIENTAL MEDICINE, priority 2018, published 2021).

For one data set, the system named is IL-13. The data set is described as follows: IL-13 production in BALF (ELISA), animal asthma model. Format: in vivo, Balb/c mouse. The conditions noted are these: OVA-10 mg/kg. Here is the method: (§1) Test was carried out by using an animal model which has been induced to have bronchial asthma by ovalbumin (OVA). As for the test animal, a 7-week old male Balb/c mouse was obtained from Jackson Laboratory (Bar Harbor, Me., USA), and used for the test after acclimation for 1 week. […] On day 3 and day 10 after intraperitoneally administering the first OVA, 2 mg of OVA were administered to the mouse via intratracheal injection. Then, from day 21 onwards for 4 weeks, the mouse was allowed to inhale OVA for 30 minutes by using a ultrasonic sprayer (NE-U12, Omron Co., Tokyo, Japan) (week 1 to week 3; exposed to 1% OVA, week 4; exposed to 2% OVA). Forty-eight hours after the last exposure to OVA, blood was taken from the anesthetized mouse, which was then subjected to autopsy to have observation of a pathological change. […]
(§2) Production amount of interleukins (IL-4, IL-5, and IL-13) in BALF separated from each test animal was measured by a commercially available kit for enzyme-linked immunosorbent assay (ELISA) (R&D System, USA). Analysis of each cytokine was carried out according to the experimental method provided by the manufacturer, and the absorbance at 450 nm was measured using an ELISA reader.
(In an ELISA, binding on a coated surface is turned into a signal by an enzyme label.)

The next data set concerns IL-5. The data set is described as follows: IL-5 production in BALF (ELISA), animal asthma model. The class given is in vivo, Balb/c mouse. The conditions noted are these: OVA-10 mg/kg. Here is the method: as §1, §2
In the next data set the test system is IL-4. The data set is described as follows: IL-4 production in BALF (ELISA), animal asthma model. The class given is in vivo, Balb/c mouse. The settings on record: OVA-10 mg/kg. On the procedure:
as §1, §2

A further data set relates to RANTES. The data set is described as follows: Inhibition of RANTES secretion in TNF-α-treated BEAS-2B cells (ELISA). Format: cell-based. The conditions noted are these: Homo sapiens, 10 ng/ml TNF-α, 24 hours, read-out: Inhibition rate (%) of RANTES secretion. On the procedure:
(§3) BEAS-2B cells (ATCC, USA), which are human bronchial epithelial cells, were cultured in Dulbecco's modified eagle medium (DMEM) added with fetal bovine serum (FBS) and penicillin-streptomycin (PS). BEAS-2B cells were cultured again for 18 hours in a 96-well plate (5×10^4 cells/well) containing DMEM 10% medium. The medium was subsequently removed and replaced with serum-free DMEM.
After that, to measure the secretion amount of RANTES, the cells were simultaneously treated with a test sample and TNF-α (10 ng/ml) and cultured for 24 hours. Secretion amount of RANTES present in cell supernatant was measured by using ELISA kit (R&D systems, USA) according to the manufacturer's protocol. As a positive control group, 0.1 μM dexamethasone was used.

In the next data set the test system is TARC. The data set is described as follows: Inhibition of TARC secretion in TNF-α + IFN-γ + IL-4-treated BEAS-2B cells (ELISA). The class given is cell-based. The conditions noted are these: Homo sapiens, TNF-α + IFN-γ + IL-4, 24 hours, read-out: Inhibition rate (%) of TARC secretion. On the procedure: as §3
Meanwhile, to measure the secretion amount of TARC, BEAS-2B cells were simultaneously treated with TNF-α (50 ng/ml), IFN-γ (10 ng/ml), and IL-4 (50 ng/ml), and, after culture for 24 hours, the measurement was made by using ELISA kit (R&D systems, USA).

Data set [1] relates to BEAS-2B pulmonary bronchial cells. The data set is described as follows: Cytotoxicity in BEAS-2B pulmonary bronchial cells using CCK-8. The class given is cell-based, human. The conditions noted are these: 0.1 μM. Here is the method: as §3

Molecule `CC(C)(O)c1ccccc1CC[C@@H](SCC1(CC(=O)O)CC1)c1cccc(/C=C/c2ccc3ccc(Cl)cc3n2)c1` [Montelukast, montelukast] returned an IL-13 with IL-13 of 89.58 ± 9.46 pg/mL. In addition, the IL-5 with IL-5 was determined as 27.91 ± 8.61 pg/mL. In the data set on IL-4, this molecule came in with an IL-4 of 60.37 ± 12.05 pg/mL.

Usually inhibition stands for the percentage by which the read-out fell short of the control. For the molecule `C[C@@H]1C[C@H]2[C@@H]3CCC4=CC(=O)C=C[C@]4(C)[C@@]3(F)[C@@H](O)C[C@]2(C)[C@@]1(O)C(=O)CO` [positive control group, dexamethasone], the inhibition at 0.1 µM worked out at 97.1 ± 12.9% in the data set on RANTES and 28.4 ± 8.77% in the data set with TARC. In addition, the “Cell viability (%)” value in data set [1] was 99.34 ± 0.14%.
